This experiment has as its system PA14 ΔfpvA ΔfpvB ΔfiuA ΔfoxA pHERD20T-fpvB Y432A. As to the kind of experiment: Growth of quadruple mutant expressing FpvB Y432A. Format: cell-based, Pseudomonas aeruginosa. The note with it: 10:90 + 2% arabinose. Here is the method:
Site-directed mutagenesis was used to confirm the docking predictions and to define the molecular determinants for ligand uptake through FpvB (Fig. 4C). We generated 17 single amino acid substitutions in FpvB and expressed each of them in trans in the quadruple ΔfpvA ΔfpvB ΔfiuA ΔfoxA mutant. Their ability to complement growth of the mutant in the presence of ferrichrome and ferrioxamine B and to restore TS susceptibility was assessed. […] The mutant transporters were tagged with a C-terminal FLAG tag to evaluate expression levels. FLAG-tagged FpvB mutants had WT levels of expression except for Y216T and W347V, which were expressed at 140% and 25% of WT, respectively.
The ΔfpvA ΔfpvB ΔfiuA ΔfoxA mutant was complemented with WT fpvA, fpvB, fiuA, and foxA in trans as controls (Fig. 4E).
MIC assays were conducted as previously described ([13], [14]). Overnight cultures were grown in LB from a glycerol stock at 37°C with shaking (200 rpm). Subcultures in 10:90 (1:100 dilution) were cultured for 4 h. Cells were adjusted to an optical density at 600 nm (OD600) of 0.1/500 in 10:90. All compounds were serially diluted 2-fold in dimethyl sulfoxide (DMSO) or H2O at 75× the final concentration. […] The next day, the OD600 was determined with a plate reader (Thermo Scientific) and normalized to percent of growth of the vehicle control after subtracting the OD600 from blank media.

Turning to `CC(=O)N(O)CCCCCNC(=O)CCC(=O)N(O)CCCCCNC(=O)CCC(=O)N(O)CCCCCN` [ferrioxamine B], the “growth in the presence of siderophore” value is reported as “prevented growth”.

The values are drawn from PMC9973354 (mBio, 2022).
